The text below walks through data of patent US11596692B1 (Incyte Corporation, priority 2018, dated 2023).

Test [1] deals with T1, PD-L1 (Homo sapiens (Human), UniProt Q9NZQ7). The test can be described thus: Direct method for PD-L1 internalization in CHO-PD-L1 cells. The test is classed as cell-based. To be noted: 40 nM pHrodo-labelled antibody, 5 to 16 hours, versus IgG control. As for the experimental part:
Endocytosis or internalization of PD-L1 was measured by two different methods, one direct and the other indirect. In the direct method, an anti PD-L1 antibody labeled with a pH sensitive fluorophore is incubated with PD-L1 expressing cells. Upon internalization and trafficking of the antibody-PD-L1 complex to low pH endosomes, fluorescence is emitted. In the indirect method, cell surface PD-L1 is measured using an anti PD-L1 antibody after incubation with a compound to determine remaining, non-internalized receptor.
For the direct measurement, biotinylated anti-PD-L1 antibody (BPS Biosciences) or Atezolizumab, biotinylated with a 20-fold excess of biotin using the EZ-Link™ Sulfo-NHS-LC-Biotin reagents (ThermoFisher), were labeled with pHrodo™ Red Avidin (Life Technologies) conjugate. Equimolar solutions of the antibody and pHrodo™ Red avidin (4.2 uM each) were incubated on ice for 2 hours in the dark in a buffer composed of 40 mM Tris-HCl, pH 8.0, 110 mM NaCl, 2.2 mM KCl, 20% glycerol, and 1% bovine serum albumin The mixture was centrifuged for 1 minute at 1000 rpm, and the clarified supernatant was used in subsequent assays. […] The cells were analyzed by flow cytometry, and internalized antibody-receptor complex was detected using a C6 Accuri Flow Cytometer (excitation with […] and emission collected with a 585/40 bandpass filter).

Test [2] deals with IRF3 activation in PD-L1 low HEK293T STING reporter cell line. The test can be described thus: IRF3 activation in HEK293T STING reporter cells, low PD-L1. To be noted: 20 hours, read-out: IRF Activation EC50 (nM), Low PD-L1. The test is classed as cell-based, human. As for the experimental part:
(§1) HEK293T STING reporter cell line was purchased from Invivogen and expressed low level of PD-L1. This cell line was then engineered at Incyte Research Institute to overexpress human PD-L1. Both PD-L1 high and PD-L1 low HEK293T cell lines were plated at 100,000 cells/100 μL/well in 10% fetal calf serum-containing DMEM culture medium in a 96-well flat bottom plate. Serial dilutions of PD-L1 small molecule-conjugated STING agonists were then added to the corresponding wells, and incubated for 20 hours at 37° C. In a competition study setting, 1 μM of a PD-L1 small molecule was added in the corresponding wells to compete with the binding of PD-L1 small molecule-conjugated STING agonists. At the end of the incubation, the culture supernatants were carefully removed from each well, and the amount of IRF3 activation was determined by adding Quanti-Blue substrate in accordance with the manufacturer's protocol.
(§2) 293T-Dual hSTING-R232 (ISG/KI-IFNb) cells that were generated from 293T-Dual Null (ISG/KI-IFNb) cells by stable transfection of the R232 isoform of human STING were purchased from Invivogen (Invivogen #293d-r232).
(§3) This cell line expresses an ISRE-inducible SEAP (secreted embryonic alkaline phosphatase) reporter construct, which monitors the activation of interferon regulatory factor (IRF) and its binding to ISRE (IFN-stimulated response elements). These reporter cells express low level of PD-L1. Human PD-L1 was then overexpressed in these cells through stable transfection.
(§4) These 293T-Dual hSTING-R232 reporter cells as well as293T-Dual hSTING-R232 reporter cells overexpressing huPD-L1 were treated with various concentrations of STING compounds for 20 hours. After 20 hours, interferon regulatory factor (IRF) activity was assessed by measuring SEAP levels in the supernatant using QUNTI-Blue. EC50 values were generated by curve fit in Prism software.

The subject of test [3] is IRF3 activation in PD-L1 high HEK293T STING reporter cell line. Briefly: IRF3 activation in HEK293T STING reporter cells, high PD-L1. The test is classed as cell-based, human. The conditions noted are these: for EC50: 20 hours; for Potency shift: with compound P27 (1 μM) versus no competition. As for the experimental part: as §1, §2, §3, §4
Test [4] has as its target T1, PD-L1. Briefly: PD-L1 surface levels on HEK293T STING reporter cells, high PD-L1. Type of test: cell-based. How it is done: (§5) To determine PD-L1 expression on HEK cells after treatment of PD-L1-small molecule conjugated STING agonists, cells were harvested at 20 hours post-treatment. Single cell suspensions were then stained with phycoerythrin-conjugated anti-PD-L1 antibody (BD Bioscience), and the PD-L1 expression were then analyzed by flow cytometry. Mean fluorescence intensity was used as the relative level of surface PD-L1 expression on cells (FIG. 1 and Table 6).
(§6) Also, cells were stained with PE-conjugated anti-human PD-L1 antibody to determine surface PD-L1 expression. Cell acquisition was performed on BD LSRFortessa X-20 (BD Biosciences). Data was analyzed using FlowJo software. IC50 values were calculated using Prism Software.

Test [5] has as its target T1, PD-L1. The test can be described thus: PD-L1 surface levels on HEK293T STING reporter cells, low PD-L1. Type of test: cell-based. How it is done: as §5, §6
In test [6] the test system is IRF3. Briefly: IRF3 activation assay in THP-1 Dual cells. Type of test: cell-based. To be noted: Homo sapiens, THP-1, Table 4C; read-out: THP1 IRF3 EC50. The gist of the method: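 THP-1 Dual cells (100,000/well) were treated with serially diluted compound for 24 h at 37° C, 5% CO2. IRF3 reporter activity in supernatant was read with QUANTI-Blue as absorbance at 620-655 nm after 2 h, with untreated cells as negative control. EC50 came from fitting percent control activity against log concentration.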

The subject of test [7] is IFNβ production in CD11b+ monocytes. The test can be described thus: IFN-beta induction in CD11b+ monocytes from healthy donor PBMC. The test is classed as cell-based, human. To be noted: CD11b+ monocyte cultures, 20 hours, mean ± SEM. As for the experimental part: (§7) CD11b^+ cells were isolated from healthy PBMCs as well as Pleural effusion samples using Miltenyi isolation kit according to manufacturer's protocol. Cells were seeded in 96 well plates at the density of 300,000 cells/wells, and then treated with various concentrations of compounds for 20 hours. After 20 hours, IFN-beta secretion levels were evaluated in the culture supernatants by MSD singleplex assay. EC50 values were calculated using Prism software.
(§8) Different naked STING agonisst and PD-L1-targeted small molecule-STING agonist conjugates were added to CD11b^+ monocytes cultures isolated from healthy donor blood or lung cancer patients' pleural effusions. Culture supernatants were collected 20 hours later and IFNβ production were determined using MSD singleplex assay.

For test [8] the test system is unchanged. The test can be described thus: IFN-beta induction in CD11b+ monocytes from lung cancer pleural effusions. The test is classed as cell-based, human. The conditions noted are these: CD11b+ monocyte cultures, lung cancer pleural effusion, 20 hours, read-out: EC50 for IFNβ induction, Cancer patient. How it is done: as §7, §8
The mark [9] stands for this setting: high PD-L1 cells, read-out: IRF Activation EC50 (nM), High PD-L1.
Where [10] appears, read: no competition, read-out: IRF Activation EC50 (nM), No competition.
Where [11] appears, read: read-out: IRF Activation EC50 (nM), With compound P27 (1 μM), competition with compound P27 1 μM.

In general, EC50 refers to the concentration that produces a half-maximal response. In general, IC50 refers to the concentration that inhibits the measured activity by half. Lower therefore signals inhibition by little substance.

Like-named read-outs stand apart in the source and are kept apart here.

T1 sequence (Q9NZQ7 19-290): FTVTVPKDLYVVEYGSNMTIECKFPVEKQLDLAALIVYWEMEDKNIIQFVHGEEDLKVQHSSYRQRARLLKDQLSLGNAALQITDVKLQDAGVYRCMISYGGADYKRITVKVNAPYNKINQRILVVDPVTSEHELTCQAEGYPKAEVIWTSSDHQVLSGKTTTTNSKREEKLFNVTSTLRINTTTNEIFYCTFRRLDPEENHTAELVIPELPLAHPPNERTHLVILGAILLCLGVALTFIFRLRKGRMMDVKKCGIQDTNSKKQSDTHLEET

Turning to Atezolizumab, in test [1], the “PD-L1 internalization (direct method)” value is reported as “dos not cause PD-L1 internalization”.

As for `CCn1nc(C)cc1C(=O)Nc1nc2cc(C(N)=O)cc(OC)c2n1C/C=C/Cn1c(NC(=O)c2cc(C)nn2CC)nc2cc(C(N)=O)cc(OCCCNC(=O)CCNC(=O)OCCSSC[C@H](NC(=O)[C@H](CC(=O)O)NC(=O)[C@H](CC(=O)O)NC(=O)[C@H](CCCNC(=N)N)NC(=O)[C@H](CC(=O)O)NC(=O)CCCN3CCc4c(nc(C(=O)Nc5cccc(-c6cccc(NC(=O)c7nc8c(n7C)CCN(CCCC(=O)O)C8)c6Cl)c5Cl)n4C)C3)C(=O)O)c21` [Example 5], the EC50 in test [2] is 200 to 1000 nM; in test [3] (setting [9]), less than 50 nM; in test [3] (setting [10]), less than 50 nM; in test [3] (setting [11]), 200 to 1000 nM. Further, the Potency shift in test [3] is more than 20. The IC50 in test [4] was less than 50 nM; in test [5], more than 1000 nM.

`CCn1nc(C)cc1C(=O)Nc1nc2cc(C(N)=O)cc(OCCCOC(=O)NCCC(=O)O)c2n1C/C=C/Cn1c2nc(-c3cc(C)nn3CC)ncc2c2cc(C(N)=O)cc(OCCCOC)c21` [Example S48, (E)-3-(((3-((5-carbamoyl-1-(4-(6-carbamoyl-2-(1-ethyl-3-methyl-1H-pyrazol-5-yl)-8-(3-methoxypropoxy)-9H-pyrimido[4,5-b]indol-9-yl)but-2-en-1-yl)-2-(1-ethyl-3-methyl-1H-pyrazole-5-carboxamido)-1H-benzo[d]imidazol-7-yl)oxy)propoxy)carbonyl)amino)propanoic acid]: the results for the EC50 in test [6], in test [7] (Homo sapiens) and in test [8] (Homo sapiens) were not above 50 nM, 64 ± 12 nM and 38 nM, respectively.

For the compound `CCn1nc(C)cc1C(=O)Nc1nc2cc(C(N)=O)cc(OCCCNC(=O)[C@H](CC(=O)O)NC(=O)[C@H](CC(=O)O)NC(=O)[C@H](CCCNC(=N)N)NC(=O)[C@H](CC(=O)O)NC(=O)CCCN3CCc4c(nc(C(=O)Nc5cccc(-c6cccc(NC(=O)c7nc8c(n7C)CCN(CCCC(=O)O)C8)c6Cl)c5Cl)n4C)C3)c2n1C/C=C/Cn1c2nc(-c3cc(C)nn3CC)ncc2c2cc(C(N)=O)cc(OC)c21` [Example 7], the EC50 is 50 to 200 nM in test [2], less than 50 nM in test [3] (setting [9]), 2010 ± 308 nM in test [7] and 643 nM in test [8]. For the same compound, the IC50 in test [4] was less than 50 nM.

In the case of `CCn1nc(C)cc1C(=O)Nc1nc2cc(C(N)=O)cc(OC)c2n1C/C=C/Cn1c(NC(=O)c2cc(C)nn2CC)nc2cc(C(N)=O)cc(OCCCNC(=O)[C@H](CC(=O)O)NC(=O)[C@H](CC(=O)O)NC(=O)[C@H](CCCNC(=N)N)NC(=O)[C@H](CC(=O)O)NC(=O)CCCN3CCc4c(nc(C(=O)Nc5cccc(-c6cccc(NC(=O)c7nc8c(n7C)CCN(CCCC(=O)O)C8)c6Cl)c5Cl)n4C)C3)c21` [Example 1], the EC50 was 200 to 1000 nM in test [2]; less than 50 nM in test [3] (setting [9]); less than 50 nM in test [3] (setting [10]); 200 to 1000 nM in test [3] (setting [11]); 5030 ± 1260 nM in test [7]; 406 nM in test [8]. Moreover, the Potency shift in test [3] is more than 100. The IC50 was less than 50 nM in test [4] and more than 1000 nM in test [5].

Consider `CCn1nc(C)cc1C(=O)Nc1nc2cc(C(N)=O)cc(OC)c2n1C/C=C/Cn1c(NC(=O)c2cc(C)nn2CC)nc2cc(C(N)=O)cc(OCCCNC(=O)CCNC(=O)OCc3ccc(NC(=O)[C@H](CCCNC(N)=O)NC(=O)[C@@H](NC(=O)CCCN4CCc5c(nc(C(=O)Nc6cccc(-c7cccc(NC(=O)c8nc9c(n8C)CCN(CCCC(=O)O)C9)c7Cl)c6Cl)n5C)C4)C(C)C)cc3)c21` [Example 2], for which the EC50 in test [2] is 50 to 200 nM; in test [3] (setting [9]), less than 50 nM; in test [3] (setting [10]), less than 50 nM; in test [3] (setting [11]), 50 to 200 nM. The Potency shift in test [3] is given as more than 20. Further, the IC50 in test [4] is less than 50 nM; in test [5] it was more than 1000 nM.
